Experimental data published in PubChem BioAssay AID248 (DTP/NCI, 2004).
“And” between values parts separate entries of the source, which are not always exact repeats. Equal entries are not always repeated. Inconclusive results and toxic doses are left out. No stated cut-off is given here; in the data, active means T/C of 150% or more; inactive means T/C below 125%.

System: L1210 leukemia ip in BDF1 mice, survival T/C
Assay: NCI In Vivo Anticancer Drug Screen. Data for tumor model L1210 Leukemia (intraperitoneal) in B6D2F1 (BDF1) mice
Settings: endpoint: mean survival time, higher = longer survival
Summary of the method: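 Transplantable tumor model; survival measured in treated vs vehicle control mice. Value = treated/control.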

[1] = dose: 50.0 mg/kg/injection, schedule: Q01DX009 (ip), vehicle: saline
[2] = dose: 100.0 mg/kg/injection, schedule: Q01DX009 (ip), vehicle: saline
[3] = dose: 200.0 mg/kg/injection, schedule: Q01DX009 (ip), vehicle: saline
[4] = dose: 400.0 mg/kg/injection, schedule: Q01DX009 (ip), vehicle: saline
[5] = dose: 100.0 mg/kg/injection, schedule: Q01DX009 (ip), vehicle: Klucel (hydroxypropylcellulose) (HPC)
[6] = dose: 100.0 mg/kg/injection, schedule: Q04DX002 (ip), vehicle: Klucel (hydroxypropylcellulose) (HPC)
[7] = dose: 100.0 mg/kg/injection, schedule: Q04DX003 (ip), vehicle: Klucel (hydroxypropylcellulose) (HPC)
[8] = dose: 200.0 mg/kg/injection, schedule: Q04DX002 (ip), vehicle: Klucel (hydroxypropylcellulose) (HPC)
[9] = dose: 200.0 mg/kg/injection, schedule: Q04DX003 (ip), vehicle: Klucel (hydroxypropylcellulose) (HPC)
[10] = dose: 400.0 mg/kg/injection, schedule: Q04DX002 (ip), vehicle: Klucel (hydroxypropylcellulose) (HPC)
[11] = dose: 400.0 mg/kg/injection, schedule: Q04DX003 (ip), vehicle: Klucel (hydroxypropylcellulose) (HPC)
[12] = dose: 100.0 mg/kg/injection, schedule: Q04DX002 (ip), vehicle: saline
[13] = dose: 200.0 mg/kg/injection, schedule: Q04DX002 (ip), vehicle: saline
[14] = dose: 400.0 mg/kg/injection, schedule: Q04DX002 (ip), vehicle: saline

Measured: T/C

N#CC12CC3CC(CC(C3)C1)C2
inactive: dose: 5.0 mg/kg/injection, schedule: Q01DX009 (ip), vehicle: saline with Tween-80 104 % of control | dose: 10.0 mg/kg/injection, schedule: Q01DX009 (ip), vehicle: saline with Tween-80 98 % of control | dose: 20.0 mg/kg/injection, schedule: Q01DX001 (ip), vehicle: carboxymethylcellulose (CMC) 96 % of control | dose: 20.0 mg/kg/injection, schedule: Q01DX009 (ip), vehicle: saline with Tween-80 112 % of control | dose: 40.0 mg/kg/injection, schedule: Q01DX001 (ip), vehicle: carboxymethylcellulose (CMC) 95 % of control | dose: 80.0 mg/kg/injection, schedule: Q01DX001 (ip), vehicle: carboxymethylcellulose (CMC) 96 % of control

Nc1ncc(C=Nc2ccc(C(=O)O)cc2)c(N)n1
inactive: dose: 200.0 mg/kg/injection, schedule: Q01DX001 (ip), vehicle: carboxymethylcellulose (CMC) 94 % of control | dose: 400.0 mg/kg/injection, schedule: Q01DX001 (ip), vehicle: carboxymethylcellulose (CMC) 102 % of control

COc1ccc(C(CC(=O)c2ccccc2)SCCN2CCOCC2)cc1 (stereo not given)
inactive: dose: 100.0 mg/kg/injection, schedule: Q04DX003 (ip), vehicle: saline with Tween-80 95 % of control | dose: 200.0 mg/kg/injection, schedule: Q04DX003 (ip), vehicle: saline with Tween-80 99 % of control

O=C1CC(=O)Nc2ccccc2N1
inactive: [1] 86 % of control | [2] 86 % of control | dose: 100.0 mg/kg/injection, schedule: Q04DX003 (ip), vehicle: saline 98 % of control | [3] 96 % of control | dose: 200.0 mg/kg/injection, schedule: Q04DX003 (ip), vehicle: saline 101 % of control | dose: 400.0 mg/kg/injection, schedule: Q04DX003 (ip), vehicle: saline 101 % of control

O=S(=O)(CCO)CCO
inactive: [1] 100 % of control | [2] 100 % of control and 88 % of control | [3] 96 % of control and 100 % of control | [4] 97 % of control

O=C(NC(=S)Nc1cccc(Cl)c1)c1cccc(Br)c1
inactive: dose: 100.0 mg/kg/injection, schedule: Q01DX001 (ip), vehicle: Klucel (hydroxypropylcellulose) (HPC) 86 % of control | [5] 98 % of control and 90 % of control | [6] 91 % of control | [7] 108 % of control | dose: 200.0 mg/kg/injection, schedule: Q01DX001 (ip), vehicle: Klucel (hydroxypropylcellulose) (HPC) 117 % of control | dose: 200.0 mg/kg/injection, schedule: Q01DX009 (ip), vehicle: Klucel (hydroxypropylcellulose) (HPC) 98 % of control and 90 % of control | [8] 93 % of control and 91 % of control | [9] 107 % of control | dose: 400.0 mg/kg/injection, schedule: Q01DX001 (ip), vehicle: Klucel (hydroxypropylcellulose) (HPC) 86 % of control | dose: 400.0 mg/kg/injection, schedule: Q01DX009 (ip), vehicle: Klucel (hydroxypropylcellulose) (HPC) 87 % of control and 91 % of control | [10] 93 % of control and 91 % of control | [11] 96 % of control

c1cc[n+]2c(c1)-c1cccc[n+]1CC2
inactive: dose: 6.25 mg/kg/injection, schedule: Q01DX009 (ip), vehicle: saline 108 % of control | dose: 12.5 mg/kg/injection, schedule: Q01DX009 (ip), vehicle: saline 104 % of control | dose: 12.5 mg/kg/injection, schedule: Q04DX003 (ip), vehicle: saline 104 % of control | dose: 15.0 mg/kg/injection, schedule: Q01DX001 (ip), vehicle: saline 95 % of control | dose: 25.0 mg/kg/injection, schedule: Q04DX003 (ip), vehicle: saline 104 % of control | dose: 30.0 mg/kg/injection, schedule: Q01DX001 (ip), vehicle: saline 102 % of control | dose: 50.0 mg/kg/injection, schedule: Q04DX003 (ip), vehicle: saline 101 % of control | dose: 60.0 mg/kg/injection, schedule: Q01DX001 (ip), vehicle: saline 102 % of control | dose: 75.0 mg/kg/injection, schedule: Q01DX001 (ip), vehicle: saline 95 % of control

CC(=O)Nc1ccc(OCCCOc2ccc([N+](=O)[O-])cc2)cc1
inactive: [7] 101 % of control | [9] 95 % of control | [11] 91 % of control

CC[P+](CC=C(C)C)(c1ccccc1)c1ccccc1
inactive: dose: 0.78 mg/kg/injection, schedule: Q04DX003 (ip), vehicle: Klucel (hydroxypropylcellulose) (HPC) 96 % of control | dose: 1.56 mg/kg/injection, schedule: Q04DX003 (ip), vehicle: Klucel (hydroxypropylcellulose) (HPC) 94 % of control | dose: 3.12 mg/kg/injection, schedule: Q04DX003 (ip), vehicle: Klucel (hydroxypropylcellulose) (HPC) 113 % of control and 88 % of control

C/C(=C\c1ccc2c(c1)OCO2)[N+](=O)[O-]
inactive: dose: 25.0 mg/kg/injection, schedule: Q01DX009 (ip), vehicle: Klucel (hydroxypropylcellulose) (HPC) 97 % of control | dose: 50.0 mg/kg/injection, schedule: Q01DX009 (ip), vehicle: Klucel (hydroxypropylcellulose) (HPC) 89 % of control | dose: 50.0 mg/kg/injection, schedule: Q01DX009 (ip), vehicle: saline with Tween-80 108 % of control | dose: 50.0 mg/kg/injection, schedule: Q04DX003 (ip), vehicle: Klucel (hydroxypropylcellulose) (HPC) 94 % of control | [5] 98 % of control and 87 % of control | dose: 100.0 mg/kg/injection, schedule: Q01DX009 (ip), vehicle: saline with Tween-80 87 % of control | [7] 103 % of control | [9] 100 % of control | [11] 97 % of control

Nc1nnc(N)c2ccccc12
inactive: [12] 100 % of control | [13] 96 % of control | [14] 102 % of control

CCOC(=O)Nc1ccc2c(c1)/C(=N\NC(=S)NC)c1ccccc1-2
inactive: dose: 75.0 mg/kg/injection, schedule: Q01DX001 (ip), vehicle: carboxymethylcellulose (CMC) 90 % of control | dose: 150.0 mg/kg/injection, schedule: Q01DX001 (ip), vehicle: carboxymethylcellulose (CMC) 92 % of control | dose: 300.0 mg/kg/injection, schedule: Q01DX001 (ip), vehicle: carboxymethylcellulose (CMC) 88 % of control

CCOC(=O)CCC(NC(=O)c1ccc(NCc2nnc3nc(N)n4nnnc4c3n2)cc1)C(=O)OCC (stereo not given)
inactive: dose: 25.0 mg/kg/injection, schedule: Q01DX001 (ip), vehicle: saline with Tween-80 96 % of control | dose: 50.0 mg/kg/injection, schedule: Q01DX001 (ip), vehicle: saline with Tween-80 109 % of control | dose: 100.0 mg/kg/injection, schedule: Q01DX001 (ip), vehicle: saline with Tween-80 100 % of control

c1ccc2c(c1)c(N1CCOCC1)nn1nnnc21
inactive: dose: 37.5 mg/kg/injection, schedule: Q04DX003 (ip), vehicle: saline 101 % of control | dose: 75.0 mg/kg/injection, schedule: Q04DX003 (ip), vehicle: saline 98 % of control | dose: 150.0 mg/kg/injection, schedule: Q04DX003 (ip), vehicle: saline 98 % of control

Cc1ccc2c(c1)SP(=S)(c1ccccc1)N2 (stereo not given)
inactive: dose: 15.0 mg/kg/injection, schedule: Q01DX Z (ip), vehicle: saline 100 % of control | dose: 25.0 mg/kg/injection, schedule: Q01DX Z (ip), vehicle: saline 89 % of control

COc1cc(C)nc(OC)n1
inactive: dose: 100.0 mg/kg/injection, schedule: Q01DX001 (ip), vehicle: saline 96 % of control | dose: 200.0 mg/kg/injection, schedule: Q01DX001 (ip), vehicle: saline 96 % of control | dose: 400.0 mg/kg/injection, schedule: Q01DX001 (ip), vehicle: saline 96 % of control

COc1ccccc1OCC(=O)N1CCCC1
inactive: [6] 98 % of control | [8] 98 % of control | [10] 117 % of control

O=[N+]([O-])c1c(Cl)nc2sccn12
inactive: [12] 106 % of control | [13] 109 % of control | [14] 90 % of control

CS(=O)(=O)N(CC(=O)O)Cc1ccccc1
inactive: [1] 101 % of control | dose: 50.0 mg/kg/injection, schedule: Q01DX009 (ip), vehicle: sodium bicarbonate 116 % of control | [2] 101 % of control | dose: 100.0 mg/kg/injection, schedule: Q01DX009 (ip), vehicle: sodium bicarbonate 106 % of control | dose: 100.0 mg/kg/injection, schedule: Q04DX003 (ip), vehicle: sodium bicarbonate 124 % of control | [3] 95 % of control | dose: 200.0 mg/kg/injection, schedule: Q01DX009 (ip), vehicle: sodium bicarbonate 101 % of control | dose: 200.0 mg/kg/injection, schedule: Q04DX003 (ip), vehicle: sodium bicarbonate 91 % of control | [4] 97 % of control | dose: 400.0 mg/kg/injection, schedule: Q01DX009 (ip), vehicle: sodium bicarbonate 104 % of control | dose: 400.0 mg/kg/injection, schedule: Q04DX003 (ip), vehicle: sodium bicarbonate 91 % of control
